Read-outs that look alike come from different tables or passages of the source.
Assays:
[1] = test system: pseudotypes with the SUDV envelope (pSUDV); assay: microbe, parasite or virus in culture; format: cell-based; settings: Sudan ebolavirus, read-out: EC50 (pSUDV)
[2] = test system: VSV-G-pseudotype virus (pVSV-G); assay: microbe, parasite or virus in culture; format: cell-based; settings: Vesicular stomatitis virus, read-out: %inh@10µM (pVSV-G)
[3] = target: EBOV-GPcl/NPC1-domain C interaction (Zaire ebolavirus, UniProt Q05320); format: binding, EBOV; Homo sapiens
[4] = male, BALB/c, mouse, in vivo
[5] = in vivo; settings: male, BALB/c, mouse
[6] = in vivo; settings: both, C57BL/6, mouse, po
[7] = in vitro; settings: chlorocebus sabaeus
[8] = in vitro; settings: human, microsomes, pH 7.4
[9] = in vitro; settings: CD-1, mouse, microsomes, pH 7.4
[10] = target: T1, hERG potassium channel (Homo sapiens, UniProt Q12809); assay: in vitro
[11] = target: Nav1.5 (Homo sapiens, UniProt Q14524); assay: in vitro
[12] = target: T1, hERG potassium channel; assay: cell-based
[13] = test system: EBOV-GP-pseudotyped virus (pEBOV); assay: microbe, parasite or virus in culture; settings: Vesicular stomatitis virus, Vero C1008, 24 h, read-out: EC50 (pEBOV)
[14] = test system: wild-type Zaire EBOV Mayinga 1976 strain (EBOV May); assay: microbe, parasite or virus in culture; settings: Zaire ebolavirus, Vero C1008, 72 h, read-out: EC50 (EBOV May)
[15] = test system: EBOV like particles; settings: cited from earlier work
[16] = test system: EBOV; settings: cited from earlier work
[17] = test system: VeroE6 cells; settings: cited from earlier work
[18] = test system: EBOV-GP-pseudotyped virus (pEBOV)
[19] = test system: wild-type Zaire EBOV Mayinga 1976 strain (EBOV May)

T1 sequence (Q12809 whole entry): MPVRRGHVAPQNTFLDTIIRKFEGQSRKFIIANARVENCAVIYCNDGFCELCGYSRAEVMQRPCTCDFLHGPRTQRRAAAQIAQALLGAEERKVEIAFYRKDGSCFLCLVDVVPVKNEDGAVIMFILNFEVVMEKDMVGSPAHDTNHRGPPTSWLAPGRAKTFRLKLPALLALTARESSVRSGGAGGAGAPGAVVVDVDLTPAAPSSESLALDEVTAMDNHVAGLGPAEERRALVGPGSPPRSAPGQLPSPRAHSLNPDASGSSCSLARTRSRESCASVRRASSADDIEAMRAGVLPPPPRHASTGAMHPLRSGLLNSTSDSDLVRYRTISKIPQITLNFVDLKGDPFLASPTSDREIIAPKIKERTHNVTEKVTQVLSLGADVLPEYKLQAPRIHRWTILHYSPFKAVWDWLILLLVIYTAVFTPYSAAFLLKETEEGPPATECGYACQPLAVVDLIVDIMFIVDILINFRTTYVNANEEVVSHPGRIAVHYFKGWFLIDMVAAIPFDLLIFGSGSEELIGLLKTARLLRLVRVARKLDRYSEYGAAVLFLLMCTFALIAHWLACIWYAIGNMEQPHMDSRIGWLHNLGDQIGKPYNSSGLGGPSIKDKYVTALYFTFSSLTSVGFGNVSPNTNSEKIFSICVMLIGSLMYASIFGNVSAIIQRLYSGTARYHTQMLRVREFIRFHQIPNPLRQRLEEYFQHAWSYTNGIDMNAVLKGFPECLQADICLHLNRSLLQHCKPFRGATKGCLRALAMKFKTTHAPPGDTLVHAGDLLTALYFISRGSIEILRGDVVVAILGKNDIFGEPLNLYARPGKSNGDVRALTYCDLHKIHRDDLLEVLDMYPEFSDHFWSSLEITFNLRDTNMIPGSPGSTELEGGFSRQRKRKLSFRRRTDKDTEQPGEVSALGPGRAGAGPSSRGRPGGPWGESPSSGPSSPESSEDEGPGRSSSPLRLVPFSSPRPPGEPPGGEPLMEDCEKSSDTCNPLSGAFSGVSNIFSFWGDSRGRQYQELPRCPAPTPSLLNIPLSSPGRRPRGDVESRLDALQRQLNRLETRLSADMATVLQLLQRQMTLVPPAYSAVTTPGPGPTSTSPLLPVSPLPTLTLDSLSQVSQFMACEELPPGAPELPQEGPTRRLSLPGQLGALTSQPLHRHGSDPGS
Chain of EBOV-GPcl/NPC1-domain C interaction (Q05320 33-190 limits assumed): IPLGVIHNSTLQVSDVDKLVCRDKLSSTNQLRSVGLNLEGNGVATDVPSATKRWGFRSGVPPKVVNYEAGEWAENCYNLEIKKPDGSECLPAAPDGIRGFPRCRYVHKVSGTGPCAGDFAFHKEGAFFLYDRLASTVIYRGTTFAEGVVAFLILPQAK
Chain of EBOV-GPcl/NPC1-domain C interaction (Q05320 502-676 limits assumed): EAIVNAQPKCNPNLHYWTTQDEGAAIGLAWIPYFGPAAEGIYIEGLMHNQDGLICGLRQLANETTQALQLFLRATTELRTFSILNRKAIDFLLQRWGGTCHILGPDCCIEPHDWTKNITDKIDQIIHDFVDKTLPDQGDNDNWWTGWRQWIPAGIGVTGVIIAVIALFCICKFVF
Chain of Nav1.5 (Q14524 whole entry): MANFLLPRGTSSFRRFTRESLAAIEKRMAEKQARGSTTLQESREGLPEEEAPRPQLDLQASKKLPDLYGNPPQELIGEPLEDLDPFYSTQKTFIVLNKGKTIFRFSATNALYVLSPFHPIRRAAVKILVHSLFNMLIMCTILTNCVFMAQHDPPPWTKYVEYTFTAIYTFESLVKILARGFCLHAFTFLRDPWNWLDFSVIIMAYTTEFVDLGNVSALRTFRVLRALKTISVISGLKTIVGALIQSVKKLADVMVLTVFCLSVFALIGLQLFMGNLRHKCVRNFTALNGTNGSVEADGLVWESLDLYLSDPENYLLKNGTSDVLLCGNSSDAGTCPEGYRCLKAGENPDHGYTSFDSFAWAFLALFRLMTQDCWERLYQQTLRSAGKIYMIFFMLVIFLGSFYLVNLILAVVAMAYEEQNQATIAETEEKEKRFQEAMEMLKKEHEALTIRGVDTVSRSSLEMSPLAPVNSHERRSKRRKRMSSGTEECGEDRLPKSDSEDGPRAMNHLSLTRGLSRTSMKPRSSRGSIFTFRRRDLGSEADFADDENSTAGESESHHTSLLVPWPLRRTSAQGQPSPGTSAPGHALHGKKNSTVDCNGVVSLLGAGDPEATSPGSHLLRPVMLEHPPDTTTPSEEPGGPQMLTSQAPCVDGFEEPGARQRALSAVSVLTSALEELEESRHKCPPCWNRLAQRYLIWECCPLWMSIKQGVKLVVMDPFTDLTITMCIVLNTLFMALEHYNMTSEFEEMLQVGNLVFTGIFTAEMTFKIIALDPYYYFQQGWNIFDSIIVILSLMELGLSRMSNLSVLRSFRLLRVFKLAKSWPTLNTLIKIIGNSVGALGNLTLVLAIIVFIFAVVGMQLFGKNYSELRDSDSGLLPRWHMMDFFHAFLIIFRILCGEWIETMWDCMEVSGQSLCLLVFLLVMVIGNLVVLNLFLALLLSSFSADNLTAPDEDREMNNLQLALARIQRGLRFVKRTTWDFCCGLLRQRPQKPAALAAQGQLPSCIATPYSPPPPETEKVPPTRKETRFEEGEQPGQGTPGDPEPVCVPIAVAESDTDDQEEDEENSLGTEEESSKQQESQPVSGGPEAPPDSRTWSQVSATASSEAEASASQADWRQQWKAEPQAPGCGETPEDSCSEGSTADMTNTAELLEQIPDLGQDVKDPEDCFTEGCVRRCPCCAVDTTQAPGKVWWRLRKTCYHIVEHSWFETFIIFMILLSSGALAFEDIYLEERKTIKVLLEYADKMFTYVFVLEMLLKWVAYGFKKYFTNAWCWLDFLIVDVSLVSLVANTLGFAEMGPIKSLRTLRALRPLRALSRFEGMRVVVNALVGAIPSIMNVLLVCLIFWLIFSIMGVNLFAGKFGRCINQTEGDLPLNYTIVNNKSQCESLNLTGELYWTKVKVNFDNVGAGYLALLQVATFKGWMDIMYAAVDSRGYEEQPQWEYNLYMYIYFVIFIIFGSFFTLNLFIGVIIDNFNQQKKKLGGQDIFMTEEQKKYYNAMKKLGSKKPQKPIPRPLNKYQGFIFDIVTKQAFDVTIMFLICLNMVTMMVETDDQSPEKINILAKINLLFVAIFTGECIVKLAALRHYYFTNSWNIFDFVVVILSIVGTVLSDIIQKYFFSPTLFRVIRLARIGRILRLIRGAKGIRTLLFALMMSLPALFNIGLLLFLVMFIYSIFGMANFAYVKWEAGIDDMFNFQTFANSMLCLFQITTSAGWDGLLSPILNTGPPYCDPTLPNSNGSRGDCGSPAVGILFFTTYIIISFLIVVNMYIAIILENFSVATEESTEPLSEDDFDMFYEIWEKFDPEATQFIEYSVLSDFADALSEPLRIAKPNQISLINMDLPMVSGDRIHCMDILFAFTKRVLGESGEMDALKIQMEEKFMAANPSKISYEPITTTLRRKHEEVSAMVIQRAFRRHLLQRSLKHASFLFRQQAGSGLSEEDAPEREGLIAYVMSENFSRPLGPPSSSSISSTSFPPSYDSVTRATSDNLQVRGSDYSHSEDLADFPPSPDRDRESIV

Which results are given for `O=C(Nc1ccccc1)c1ccc(-c2ccc(OC3CCNCC3)cc2)s1` [compound 57, N-Phenyl-5-(4-(piperidin-4-yloxy)phenyl)thiophene-2-carboxamide]?
EC50 [1]: 1.68 µM; inhibition at 10 µM [2]: 24%; inhibitory effect on EBOV-GPcl/NPC1-domain C interaction (in words) [3]: comparable effect than the control imipramine; brain concentration ([4]; ip, 10 mg/kg): 4430 nM; estimated plasma concentration ([4]; ip, 10 mg/kg): 2.74 µM; brain concentration ([4]; po, 50 mg/kg): 14800 nM; estimated plasma concentration ([4]; po, 50 mg/kg): 2.04 µM; half-life at 24 h ([5]; ip, 10 mg/kg): 5.18 h; Cmax ([5]; ip, 10 mg/kg): 1680 ng/mL; Cmax at 24 h ([5]; ip, 10 mg/kg): 1040 ng/mL; Tmax ([5]; ip, 10 mg/kg): 4 h; Tmax at 24 h ([5]; ip, 10 mg/kg): 0.5 h; half-life at 24 h ([5]; po, 50 mg/kg): 8.76 h; Cmax ([5]; po, 50 mg/kg): 773 ng/mL; Cmax at 24 h ([5]; po, 50 mg/kg): 5600 ng/mL; Tmax ([5]; po, 50 mg/kg): 4 h; Tmax at 24 h ([5]; po, 50 mg/kg): 2 h; MTD [6]: 100 mg/kg; CC50 at 24 h [7]: 11 µM; half-life at 1 h, 10 µM [8]: 2.17 ± 0.15 h; half-life at 1 h, 10 µM [9]: 0.483 ± 0.0833 h; IC50 [10]: 48.9 µM; IC50 [11]: > 50 µM; IC50 [12]: ~50 µM; EC50 [13]: 8.16 µM; EC50 [14]: 0.19 µM

Which results are given for `O=C(Nc1ccccc1)c1ccc(-c2cccc(OC3CCNCC3)c2)s1` [compound 53, N-Phenyl-5-(3-(piperidin-4-yloxy)phenyl)thiophene-2-carboxamide]?
EC50 [1]: 3.05 µM; inhibition at 10 µM [2]: 7%; CC50 at 24 h [7]: 33.9 µM; EC50 [13]: 7.19 µM; EC50 [14]: 0.3 µM

Which results are given for `O=C(Nc1ccccc1)c1ccc(-c2ccccc2OC2CCNCC2)s1` [compound 1, N-Phenyl-5-(2-(piperidin-4-yloxy)phenyl)thiophene-2-carboxamide]?
EC50 [1]: 2.64 µM; inhibition at 10 µM [2]: 0.66%; inhibitory effect on EBOV-GPcl/NPC1-domain C interaction (in words) [3]: comparable effect than the control imipramine; brain concentration ([4]; ip, 10 mg/kg): 330 nM; estimated plasma concentration ([4]; ip, 10 mg/kg): 0.32 µM; brain concentration ([4]; po, 50 mg/kg): 810 nM; estimated plasma concentration ([4]; po, 50 mg/kg): 0.29 µM; half-life at 24 h ([5]; ip, 10 mg/kg): 1.96 h; Cmax at 24 h ([5]; ip, 10 mg/kg): 122 ng/mL; half-life at 24 h ([5]; po, 50 mg/kg): 5.6 h; CC50 at 24 h [7]: 34 µM; IC50 [10]: 10.6 µM; IC50 [11]: 20.4 µM; EC50 [13]: 5.91 µM; EC50 [14]: 1.5 µM

Which IC50 [15] does the source give for `CN(C)CCCN1c2ccccc2CCc2ccccc21` [Imipramine, imipramine] here?
Its IC50 is 13.2 µM.

Which results are given for `NC(=O)c1nc(F)cnc1O` [Favipiravir, favipiravir]?
IC50 [16]: 67 µM; CC50 [17]: > 1000 µM

With `O=C(NCCc1ccccc1)c1ccc(-c2ccccc2OC2CCNCC2)s1` [compound 49, N-Phenethyl-5-(2-(piperidin-4-yloxy)phenyl)thiophene-2-carboxamide] as the molecule, how does the inhibition at 10 µM [2] read?
Its inhibition at 10 µM is -160%.

What about the “SI (CC50/EC50)” value [18] of the same molecule?
The value was 5.6.

What about the “SI (CC50/EC50)” value [19] of the same molecule?
Its value is 36.9.

And the CC50 at 24 h [7]?
Its CC50 at 24 h is 29.2 µM.

And the EC50 [13]?
The EC50 was 5.2 µM.

What about the EC50 [14] of the same molecule?
The EC50 was 0.79 µM.

For `COC(=O)c1ccc(COc2ccccc2CN2CCN(C(=O)CNC(=O)CC34CC5CC(CC(C5)C3)C4)CC2)cc1` [3.47], which EC50 [16] is on record?
Its EC50 is 0.16 µM.

Which results are given for `O=C(NCCc1ccccc1)c1cnc(-c2ccccc2OC2CCNCC2)s1` [compound 97, N-Phenethyl-2-(2-(piperidin-4-yloxy)phenyl)thiazole-5-carboxamide]?
inhibition at 10 µM [2]: 18%; SI (CC50/EC50) [18]: 14.5; SI (CC50/EC50) [19]: 5.8; CC50 at 24 h [7]: 91 µM; EC50 [13]: 6.27 µM; EC50 [14]: 15.7 µM

Which inhibition at 10 µM [2] does the source give for `O=C(Nc1ccc(N2CCOCC2)cc1)c1ccc(-c2ccccc2OC2CCNCC2)s1` [compound 50, N-(4-Morpholinophenyl)-5-(2-(piperidin-4-yloxy)phenyl)thiophene-2-carboxamide] here?
Its inhibition at 10 µM is -31%.

What about the “SI (CC50/EC50)” value [18] of the same molecule?
Its value is 2.26.

What about the “SI (CC50/EC50)” value [19] of the same molecule?
The value was 2.8.

And the CC50 at 24 h [7]?
The CC50 at 24 h was 22 µM.

What about the EC50 [13] of the same molecule?
The EC50 was 9.7 µM.

What about the EC50 [14] of the same molecule?
Its EC50 is 7.74 µM.

With `CN(C)CCOc1ccc(/C(=C(/CCCl)c2ccccc2)c2ccccc2)cc1` [Toremifene, toremifene] as the molecule, how does the CC50 [17] read?
Its CC50 is 16 µM.

What does the source list for `O=C(Nc1ccc(Cl)cc1)c1ccc(-c2cccc(OC3CCNCC3)c2)s1` [compound 54, N-(4-Chlorophenyl)-5-(3-(piperidin-4-yloxy)phenyl)thiophene-2-carboxamide]?
inhibition at 10 µM [2]: 30%; SI (CC50/EC50) [18]: 2.8; SI (CC50/EC50) [19]: 8.9; CC50 at 24 h [7]: 10 µM; EC50 [13]: 3.53 µM; EC50 [14]: 1.12 µM

Which inhibition at 10 µM [2] does the source give for `O=C(Nc1cccc(Cl)c1)c1ccc(-c2ccc(OC3CCNCC3)cc2)s1` [compound 59, N-(3-Chlorophenyl)-5-(4-(piperidin-4-yloxy)phenyl)thiophene-2-carboxamide] here?
Its inhibition at 10 µM is 5%.

And the “SI (CC50/EC50)” value [18]?
The value was 3.8.

And the “SI (CC50/EC50)” value [19]?
Its value is 21.8.

And the CC50 at 24 h [7]?
Its CC50 at 24 h is 26 µM.

And the EC50 [13]?
Its EC50 is 7.91 µM.

And the EC50 [14]?
The EC50 was 1.19 µM.

Which results are given for `O=C(NCCC1CCN(Cc2ccccc2)CC1)c1ccc(-c2ccccc2OC2CCNCC2)s1` [compound 51, N-(2-(1-Benzylpiperidin-4-yl)ethyl)-5-(2-(piperidin-4-yloxy)phenyl)thiophene-2-carboxamide]?
inhibition at 10 µM [2]: -148%; SI (CC50/EC50) [18]: 2; SI (CC50/EC50) [19]: 6.6; CC50 at 24 h [7]: 19.5 µM; EC50 [13]: 9.3 µM; EC50 [14]: 2.96 µM

Source: publication PMC11440591 (Journal of Medicinal Chemistry, 2024)
